The subject of one assay is Fusarium oxysporum. Put plainly: In vitro control of Fusarium oxysporum on PDA medium. The assay is classed as cell-based. The following applies: Fusarium oxysporum from potato, dose 1 L/400 L water, 28-30° C., dark, 7 days. As for the experimental part:
A strain of Fusarium oxysporum isolated from potato was cultivated in a solid potato dextrose agar (PDA) medium. The efficacy of the mixture of kasugamycin and laminarin in a 1:1 ratio, and each component individually was tested.
The in vitro assessment of the products effectiveness was carried out as per the treatments discussed in Table 2. Accordingly, the components in each treatment were dissolved in the PDA culture medium at the dose indicated above. The mixture was homogenized and poured into sterile petri dishes. Explants of 5 mm diameter of the fungus strain Fusarium oxysporum were placed on the petri dishes with PDA. The dishes were incubated inverted, in dark conditions at a temperature of 28-30° C. The evaluation of the inhibition of the fungus was carried out 7 days later.
This effectiveness of all treatments as measured by percent reduction in the Fusarium oxysporum growth, was also evaluated according to Colby's equation as below. […]
If the actual/observed anti-phytopathogenic efficacy of the kasugamycin and laminarin combination against Fusarium oxysporum exceeds the calculated value, then the activity of the combination is super additive, i.e. a synergistic effect exists. In this case, the efficacy which was actually observed must be greater than the value for the expected efficacy (E) calculated from the abovementioned formula.

The subject of a further assay is Alternaria alternata. The assay can be described thus: In vitro control of Alternaria alternata on PDA medium. Type of assay: cell-based. The following applies: Alternaria alternata from potato, dose 1 L/400 L water, 28-30° C., dark, 7 days. As to the method:
A strain of Alternaria alternata isolated from potato was cultivated in a solid potato dextrose agar (PDA) medium. The efficacy of the mixture of kasugamycin and laminarin in a 1:1 ratio, and each component individually was tested.
The in vitro assessment of the products effectiveness was carried out as per the treatments discussed in Table 4. Accordingly, the components in each treatment were dissolved in PDA culture medium at the dose indicated above. The mixture was homogenized and poured into sterile petri dishes. Explants of 5 mm diameter of Alternaria alternata were placed on the petri dishes with PDA. The dishes were incubated inverted in dark conditions at a temperature of 28-30° C. The evaluation of the inhibition of the fungus was carried out 7 days later.
The present inventors have calculated the Colby value of the synergistic combination as discussed in Example 4 above.

Consider two compounds from US12685313B2, “Agricultural composition comprising kasugamycin” (UPL Corporation Limited, priority 2021, dated 2026).

Regarding `C[C@H]1O[C@H](O[C@H]2[C@H](O)[C@@H](O)[C@@H](O)[C@H](O)[C@@H]2O)[C@@H](N)C[C@@H]1NC(=N)C(=O)O` [Kasugamycin], the entries for the “% Observed control” value in the assay with Fusarium oxysporum and in the assay with Alternaria alternata were 48% and 54%, respectively.
In the same order, the values of Laminarin are 11% and 30%.
